According to patent US20210236784A1, “DEVICE FOR ORAL DELIVERY OF ACTIVE AGENTS” (Entrega Inc., priority 2015, published 2021):

Test: Surgical Bioavailability Assay
Type: in vivo
Details: pig; octreotide; porcine surgical model, device/dosage form placed in the intestine (jejunum, ileum); from active agent levels in blood samples; FIG. 23
Procedure: To determine bioavailability, mucoadhesive devices according to aspects of the present disclosure, as well as comparative dosage forms, are tested by a surgical model (Surgical Bioavailability Assay).
Surgical Bioavailability Assay. In the Surgical Bioavailability Assay, a porcine model is used, in which the animals undergo open surgery such that devices and/or dosage forms to be tested can be placed at regions of the intestine of interest, such as the jejunum and ileum. After administration of anesthesia, a ventral midline incision is made to gain access to the animal's abdominal cavity. The jejunum and ileum are exposed, and incisions are made to manually place the devices and/or dosage forms being tested. After placement of the device and/or dosage form is complete, the intestinal incisions are closed, and the midline incision can also be temporarily closed. Also, access can be made for blood collection via the carotid artery or jugular vein. The animal can be kept under anesthesia for up to 4 hours to allow for blood collection, such as at 5 mins, 15 mins, 30 mins, 60 mins, 90 mins, and 2 hours after oral dosage form placement. Blood samples can also be collected prior to the surgical procedure. The percent bioavailability of the active agent provided with the devices and/or dosage forms is determined on the basis of the active agent levels detected in these blood samples. […]

Structure (SMILES): C[C@@H](O)[C@@H]1NC(=O)[C@H](CCCCN)NC(=O)[C@@H](Cc2c[nH]c3ccccc23)NC(=O)[C@H](Cc2ccccc2)NC(=O)[C@@H](NC(=O)[C@H](N)Cc2ccccc2)CSSC[C@@H](C(=O)N[C@H](CO)[C@@H](C)O)NC1=O [octreotide solution, octreotide]
- bioavailability: ~1%
